Tests used:
[1] = test system: ascites Sarcoma-180 tumor; test: chemotherapeutic activity vs ascites Sarcoma-180 tumor, single i.p. injection on day 1 (Table 2 survey); format: in vivo, Swiss White mice; details: for # of cures / Dose of Best % ILS / Toxic Level / Best % ILS (increase in lifespan): carrier saline; for # of cures: 6 animals per test; for Dose of Best % ILS / Toxic Level / Best % ILS (increase in lifespan): single i.p. day 1; for Toxic Level: 2 or more of 6 animals died within 8 days; for Best % ILS (increase in lifespan): max 100%
Experimental: The chemotherapeutic activities of the "Platinum Blue" complexes were determined using the ascites Sarcoma-180 tumor in Swiss White mice. The protocols for these tests were as follows: Random bred female Swiss White mice (Spartan Laboratory, Williamston, Mich.) of 18-20 grams weight were randomized in groups of six. The ascites cells were removed from the peritoneal cavities of animals with approximately 10 day old ascites tumors. The cells were washed several times with 0.85% saline and spun down each time in a refrigerated centrifuge for 3-5 minutes at 750 r.p.m. After the blood was removed from the cells, they were diluted with 0.85% saline solution and counted in a hemocytometer. A final dilution of 2×10^7 cells/ml. in saline was made. Each animal received 0.2 ml. of this suspension (4×10^6 cells/animals). This was injected intraperitoneally on day 0 of each test. Two groups (12 animals) were kept as negative controls, and the test was terminated at twice the mean day of death of the negative controls. […] All test compounds were injected i.p. on day one as a 0.5 ml. volume of the compound in a carrier of water, physiologic saline or arachis oil (peanut oil). Soluble compounds were always tested in appropriate solutions, the insoluble ones as a slurry. The slurry was sonicated for periods of up to 10 minutes to insure uniformity of dispersion just prior to injections. […] Retests were performed if a sufficient level of drug toxicity at the highest dose was not reached. Animals still alive at the completion of the tests were considered to have died on the day of evaluation. Animals showing no abdominal distention (by palpation, or visibly) on this day were considered cured.
The compounds tested were usually freshly prepared and purified. The compounds kept for further testing were stored in a vacuum dessicator in a dark refrigerator to prevent deterioration. […] Toxic levels are considered to be that concentration where 2 or more of the 6 animals at the dose died within 8 days of injection.
The letter A indicates the "blue" or first isolated precipitate, the letter B, the "green" or second precipitate.

[2] = test system: MCDV 12 (Rauscher Leukemia, Virus Induced); test: effects on MCDV 12 (Rauscher Leukemia, virus induced) (Table 5); format: in vivo, BALB/C Mice; details: for Survivors: at 200% ILS
Text: (§1) Tables 4-7, respectively, tabulate the results achieved when employing the complexes of the invention against the L1210, MCDV 12, (Rauscher Leukemia, virus-induced), Ehrlich Ascites and the ADJ PC6A (myeloma) tumors.
^a All experiments were terminated arbitrarily at 200% ILS and
survivors tabulated at that time. All therapy was started on third day
after tumor transplant. Untreated tumor controls died 10-11 days after
transplant. In some instances, efforts to reproduce above results have
shown considerable variability.

ADJ/PC6A Tumor = test: effects on ADJ/PC6A tumor (Table 7); format: in vivo, Female, C^- Mice; details: i.p., single dose, 24 days after tumor implant
L1210 Tumor = test: effects on L1210 tumor (Table 4); format: in vivo, BDF Mice; details: for Survivors: at 200% ILS
Text: as §1
^a All experiments were terminated arbitrarily at 200% ILS and any
survivors were tabulated at that time. All therapy was started on the
third day after tumor transplant. Untreated tumor controls died 10-11 day
after transplant. In some instances efforts to reproduce above results
have shown considerable variability.

SMILES | # of cures [1] | Dose of Best % ILS [1] [mg/kg] | Toxic Level [1] [mg/kg] | Best % ILS (increase in lifespan) [1] [%] | ID 90 (90% Inhibition) (ADJ/PC6A Tumor) [mg/kg] | LD50 (ADJ/PC6A Tumor) [mg/kg] | further results
CC1CNC(=O)NC1=O (stereo not drawn) [5,6-dihydrothymine Class IA] | 2 | 200 | 400 | 87 | 25 | 135 | % ILS ([2]; 30.63 mg/kg q3 hr × 8): 75%; Survivors ([2]; 30.63 mg/kg q3 hr × 8): 1/3; % ILS ([2]; 50 mg/kg qid × 5): 157%; Survivors ([2]; 50 mg/kg qid × 5): 2/3; % ILS ([2]; 61.25 mg/kg q3 hr × 6): 121%; Survivors ([2]; 61.25 mg/kg q3 hr × 6): 2/3; % ILS ([2]; 100 mg/kg qid × 5): 0%; Survivors ([2]; 100 mg/kg qid × 5): 0/3; % ILS (L1210 Tumor; 30.63 mg/kg q3 hr × 8): 30%; Survivors (L1210 Tumor; 30.63 mg/kg q3 hr × 8): 0/3; % ILS (L1210 Tumor; 50 mg/kg qid × 5): 36%; Survivors (L1210 Tumor; 50 mg/kg qid × 5): 0/3; % ILS (L1210 Tumor; 61.25 mg/kg q3 hr × 8): 0%; Survivors (L1210 Tumor; 61.25 mg/kg q3 hr × 8): 0/3; % ILS (L1210 Tumor; 100 mg/kg qid × 5): 45%; Survivors (L1210 Tumor; 100 mg/kg qid × 5): 0/3
CCOC(=O)c1c[nH]c(=O)[nH]c1=O [5-carbethoxyuracil Class IA] | 0 | 200 | 200 | 56 | 250 | 670 | 
O=c1[nH]cc(CO)c(=O)[nH]1 [5-hydroxymethyluracil Class IA] | 2 | 100 | 200 | 98 | 42 | 40 | 
O=c1cc(Cl)[nH]c(=O)[nH]1 [6-chlorouracil Class IA] | 3 | 200 | > 200 | 88 | 190 | 200 | 
CC#N.CC#N.[Cl][Pt][Cl] [Pt(CH3 CN)2 Cl2, reference compound] | 1 | 25 | 50 | 83 |  |  | gross hepatic damage ([1]; in words): exceptions
